Where two headings read alike, the source gives them in different places.
Experiments:
[1] = test system: HIV-1 (IIIB) in MT-4 cells; test: microbe, parasite or virus in culture; assay type: cell-based; conditions: Human immunodeficiency virus 1, IIIB
[2] = Liver microsomal stability, human liver microsomes; conditions: human
Description: Liver Microsomal Stability Protocol
Test compounds and one control compound (verapamil) were tested in 3 different species in duplicate sets.
Test compound concentration: 1 uM; Protein concentration: 0.5 mg/mL (for dog, rat, and human liver microsomes); Cofactor: NADPH-Regenerating system (NRS) solution; Time-points: 2, 12, 25, 45, and 65 minutes.
Reaction Composition (in Each Incubation Well) Contains:
At an incubation temperature of 37° C., the reaction was started with addition of NADPH Regeneration System, at each time point, 25 uL of the reaction mixture was removed and added to a plate with 225 uL quenching solution (50% MeOH, 25% ACN, 25% H2O, and 200 nM labetalol as internal standard). After plates were vortexed, they were centrifuged for 30 minutes to remove proteins. About 100 μL supernatant was removed to a new plate and diluted with 150 μL water. About 20 μL of the mixture was injected into LC/MS/MS system to monitor the compound's response. In vitro measured t1/2 was used to calculate Clint values.

[3] = MT4, MT-4 cells, HIV-1, read-out: MT4 EC50

| half-life at 1 uM ([2]; liver microsomes) | Structure (SMILES) | EC50 [1, 3] | EC50 ([1]; MT4, read-out: MT4 EC50 (nM)) | half-life at 1 uM ([2]; microsomes) |
| --- | --- | --- | --- | --- |
| ≥ 6.58 h | CC(C)(C)C[C@]1(c2ccc3nc(C#Cc4ccccc4)ccc3c2)NC(=N)N([C@H](COC(=O)NC2(C(F)(F)F)CC2)c2ccc(Cl)c(-n3ncnc3C(F)F)c2)C1=O (stereo in doubt) [Compound 360] | 79.9 nM |  |  |
| ≥ 6.58 h | CC(C)(C)C[C@]1(c2ccc(-c3cnn(C(F)F)c3)cc2)NC(=N)N([C@H](COC(=O)NC2(C(F)(F)F)CC2)c2ccc(Cl)c(-c3nnn[nH]3)c2)C1=O [Compound 72] | 5710 nM |  |  |
| ≥ 6.58 h | CC(C)(C)C[C@]1(c2ccc(-c3cnn(C(F)F)c3)cc2)NC(=N)N([C@H](COC(=O)NC(C)(C)C(F)F)c2ccc(Cl)c(-c3ncn[nH]3)c2)C1=O [Compound 78] | 74.9 nM |  |  |
| ≥ 6.58 h | CC(C)(C)C[C@]1(c2ccc(-c3cnn(C(F)F)c3)cc2)NC(=N)N([C@H](COC(=O)NC(C)(C)C(F)F)c2ccc(Cl)c(-c3nccn3C(F)F)c2)C1=O [Compound 89] | 34.4 nM |  |  |
| ≥ 6.58 h | CC(C)(C)C[C@]1(c2ccc(-c3cnn(C(F)F)c3)cc2)NC(=N)N([C@H](COC(=O)NC(C)(C)C(F)F)c2ccc(Cl)c(-c3nncn3C(F)F)c2)C1=O [Compound 91] | 200 nM |  |  |
| ≥ 6.58 h | [2H]C([2H])([2H])n1cnc(-c2cc([C@@H](COC(=O)NC(C)(C)C(F)F)N3C(=N)N[C@](C[C@]4(C)CC4(F)F)(c4ccc(-c5cnn(C(F)F)c5)cc4)C3=O)ccc2Cl)n1 [Compound 97] | 18.9 nM |  |  |
| ≥ 6.58 h | CC(C)(C)C[C@]1(c2ccc(-c3ncccn3)cc2)NC(=N)N([C@H](COC(=O)NC2(C(F)(F)F)CC2)c2ccc(Cl)c(-c3ncn[nH]3)c2)C1=O [Compound 105] | 36.7 nM |  |  |
| ≥ 6.58 h | CC(C)(C)C[C@]1(c2ccc(-c3cnn(C(F)F)c3)cc2F)NC(=N)N([C@H](COC(=O)NC2(C(F)(F)F)CC2)c2ccc(Cl)c(-c3ncn[nH]3)c2)C1=O [Compound 110] | 96 nM |  |  |
| ≥ 6.58 h | CC(C)(F)C[C@]1(c2ccc(-c3cnn(C(F)F)c3)cc2)NC(=N)N([C@H](COC(=O)NC(C)(C)C(F)F)c2ccc(Cl)c(-c3ncnn3C(F)F)c2)C1=O [Compound 129] | 27.3 nM |  |  |
| ≥ 6.58 h | CC(C)(F)C[C@]1(c2ccc(-c3cnn(C(F)F)c3)cc2)NC(=N)N([C@H](COC(=O)NC2(C(F)(F)F)CC2)c2ccc(Cl)c(-c3ncnn3C(F)F)c2)C1=O [Compound 134] | 18.5 nM |  |  |
| ≥ 6.58 h | CC(C)(C[C@]1(c2ccc(-c3cnn(C4CC4)c3)cc2)NC(=N)N([C@H](COC(=O)NC2(C(F)(F)F)CC2)c2ccc(Cl)c(-c3ncnn3C(F)F)c2)C1=O)C(F)(F)F [Compound 135] | 13.6 nM |  |  |
| ≥ 6.58 h | C[C@H](NC(=O)OC[C@H](c1ccc(Cl)c(-c2ncnn2C(F)F)c1)N1C(=N)N[C@](CC(C)(C)C(F)(F)F)(c2ccc(-c3cnn(C4CC4)n3)cc2)C1=O)C(F)(F)F [Compound 153] | 14 nM |  |  |
| ≥ 6.58 h | CC(C)(C[C@]1(c2ccc(-c3cnn(C4CC4)n3)cc2)NC(=N)N([C@H](COC(=O)NC2(C(F)(F)F)CC2)c2ccc(Cl)c(-c3ncnn3C(F)F)c2)C1=O)C(F)F [Compound 154] | 19.7 nM |  |  |
| ≥ 6.58 h | CC(C)(C[C@]1(c2ccc(-c3cnn(C4CC4)n3)cc2)NC(=N)N([C@H](CNC(=O)CC(F)(F)F)c2ccc(Cl)c(-c3ncnn3C(F)F)c2)C1=O)C(F)(F)F [Compound 160] | 12.6 nM |  |  |
| ≥ 6.58 h | C[C@H](NC(=O)OC[C@H](c1ccc(Cl)c(-c2ncnn2C(F)F)c1)N1C(=N)N[C@](CC(C)(C)C)(c2ccc(-c3cnn(C(F)F)n3)cc2)C1=O)C(F)(F)F [Compound 163] | 9.06 nM |  |  |
| ≥ 6.58 h | CC(C)(C)C[C@]1(c2ccc(-c3cnn(C(F)F)c3)cc2)NC(=N)N([C@H](COC(=O)NC(C)(C)C(F)(F)F)c2ccc(Cl)c(-n3ncnc3C(F)F)c2)C1=O [Compound 182] | 12 nM |  |  |
| ≥ 6.58 h | CC(C)(C)C[C@]1(c2ccc(-c3cnn(C4CC4)n3)cc2F)NC(=N)N([C@H](COC(=O)NC2(C(F)(F)F)CC2)c2ccc(Cl)c(-n3ncnc3C(F)F)c2)C1=O [Compound 224] | 19.5 nM |  |  |
| ≥ 6.58 h | CC(C)C[C@]1(c2ccc(-c3cnn(C(F)F)c3)cc2F)NC(=N)N([C@H](COC(=O)NC2(C(F)(F)F)CC2)c2ccc(Cl)c(-n3ncnc3C(F)F)c2)C1=O [Compound 278] | 23.6 nM |  |  |
| ≥ 6.58 h | Cn1ccc(-c2ccc([C@@]3(CC(C)(C)C)NC(=N)N([C@H](COC(=O)NC4(C(F)(F)F)CC4)c4ccc(Cl)c(-n5ncnc5C(F)F)c4)C3=O)cc2F)n1 [Compound 289] | 8.26 nM |  |  |

The next lines start with the compound.

| Structure (SMILES) | half-life at 1 uM ([2]; liver microsomes) | EC50 [1, 3] | EC50 ([1]; MT4, read-out: MT4 EC50 (nM)) | half-life at 1 uM ([2]; microsomes) |
| --- | --- | --- | --- | --- |
| CC(C)(C)C[C@]1(c2ccc(-c3cnn(C(F)F)c3)cc2)NC(=N)N([C@H](COC(=O)N[C@@H]2CC2C(F)(F)F)c2ccc(Cl)c(-n3ncnc3C(F)F)c2)C1=O (single isomer, unassigned) [Compound 331] | ≥ 6.58 h | 16.4 nM |  |  |
| CC(C)(C)C[C@]1(c2ccc(-c3cnn(C(F)F)c3)cc2)NC(=N)N([C@H](COC(=O)NC2CC2)c2ccc(Cl)c(-c3nccc(=O)[nH]3)c2)[C@H]1O [Compound 17] | ≥ 6.58 h | 556 nM |  |  |
| CC(C)(C)C[C@]1(c2ccc(-c3cnn(C(F)F)c3)cc2)NC(=N)N([C@H](COC(=O)NC2(C(F)(F)F)CC2)c2ccc(Cl)c(-c3ccccn3)c2)C1=O [Compound 20] | ≥ 6.58 h | 76.7 nM |  |  |
| [H]/N=C1\N[C@](CC(C)(C)C)(c2ccc(-c3cnn(C(F)F)c3)cc2)C(=O)N1[C@H](COC(=O)NC1CC1)c1ccc(Cl)c(-c2ncn(C(F)F)n2)c1 [Compound 34] | ≥ 6.58 h | 38.7 nM |  |  |
| CC(C)(C)C[C@]1(c2ccc(-c3cnn(C(F)F)c3)cc2)NC(=N)N([C@H](COC(=O)NC2(C(F)F)CC2)c2ccc(Cl)c(-n3ncnc3C(F)F)c2)C1=O [Compound 179] |  |  | 9.37 nM | ≥ 6.58 h |
| CC(C)(C)C[C@]1(c2ccc(-c3cnn(C(F)F)c3)cc2)NC(=N)N([C@H](COc2ccc(F)cc2F)c2ccc(Cl)c(-n3ncnc3C(F)F)c2)C1=O [Compound 365] |  | 143 nM |  |  |
| C[C@H](NC(=O)OC[C@H](c1ccc(Cl)c(-n2ncnc2C(F)F)c1)N1C(=N)N[C@](CC(C)(C)C)(c2ccn3nccc3c2)C1=O)C(F)(F)F [Compound 367] |  | 19 nM |  |  |
| CC(C)n1ncc(-c2ccc([C@@]3(CC(C)(C)C)NC(=N)N([C@H](COC(=O)NC4(C(F)(F)F)CC4)c4ccc(Cl)c(-n5ncnc5C(F)F)c4)C3=O)cc2)n1 [Compound 371] |  | 26.7 nM |  |  |
| CC(C)(C)C[C@]1(c2ccc(C(F)(F)F)cc2)NC(=N)N([C@H](COC(=O)NC2(C(F)(F)F)CC2)c2ccc(Cl)c(-n3ncnc3C(F)F)c2)C1=O [Compound 373] |  | 49.7 nM |  |  |
| CC(C)(C)C[C@]1(c2ccc(-c3cnn(C(F)F)c3)cc2)NC(=N)N([C@H](COC(=O)NC2(C)CC2)c2cccc(-n3ncnc3C(F)F)c2)C1=O [Compound 375] |  | 30.8 nM |  |  |
| CC(C)(C)C[C@]1(c2ccc(-c3cnn(C(F)F)c3)cc2)NC(=N)N([C@H](COC(=O)N(CC(F)F)C2CC2)c2ccc(Cl)c(-n3cncn3)c2)C1=O [Compound 376] |  | 12 nM |  |  |
| CC(C)(C)C[C@]1(c2ccc(C#CC(C)(C)S(C)(=O)=O)cc2)NC(=N)N([C@H](COC(=O)NC(C)(C)C(F)F)c2ccc(Cl)c(-n3cncn3)c2)C1=O [Compound 377] |  | 90.7 nM |  |  |
| CC(C)(C)C[C@]1(c2ccc(-c3ncon3)cc2)NC(=N)N([C@H](COC(=O)NC2(C(F)(F)F)CC2)c2ccc(Cl)c(-n3cncn3)c2)C1=O [Compound 378] |  | 35.6 nM |  |  |
| CC(C)(C)C[C@]1(c2ccc(-c3cnn(C4CC4)n3)cc2)NC(=N)N([C@H](CNC(=O)C2CC2)c2ccc(Cl)c(-n3ncnc3C(F)F)c2)C1=O [Compound 381] |  | 24.8 nM |  |  |
| CC(C)(C)C[C@]1(c2ccc(-c3cnn(C4CC4)n3)cc2)NC(=N)N([C@H](CNC(=O)C2(C)CC2)c2ccc(Cl)c(-n3ncnc3C(F)F)c2)C1=O [Compound 382] |  | 36.5 nM |  |  |
| CC(C)(C)C[C@]1(c2ccc(-c3cnn(C4CC4)n3)cc2)NC(=N)N([C@H](CNC(=O)CC(F)(F)F)c2ccc(Cl)c(-n3ncnc3C(F)F)c2)C1=O [Compound 383] |  | 9.7 nM |  |  |
| CC(C)(C)C[C@]1(c2ccc(-c3cnn(C4CC4)n3)cc2)NC(=N)N([C@H](CNC(=O)CC2CC2)c2ccc(Cl)c(-n3ncnc3C(F)F)c2)C1=O [Compound 384] |  | 18 nM |  |  |
| C[C@H](C(=O)NC[C@H](c1ccc(Cl)c(-n2ncnc2C(F)F)c1)N1C(=N)N[C@](CC(C)(C)C)(c2ccc(-c3cnn(C4CC4)n3)cc2)C1=O)C(F)(F)F [Compound 385] |  | 12.8 nM |  |  |
| C[C@@H](C(=O)NC[C@H](c1ccc(Cl)c(-n2ncnc2C(F)F)c1)N1C(=N)N[C@](CC(C)(C)C)(c2ccc(-c3cnn(C4CC4)n3)cc2)C1=O)C(F)(F)F [Compound 386] |  | 23.4 nM |  |  |
| CC(C)C(=O)NC[C@H](c1ccc(Cl)c(-n2ncnc2C(F)F)c1)N1C(=N)N[C@](CC(C)(C)C(F)(F)F)(c2ccc(-c3cnn(C4CC4)n3)cc2)C1=O [Compound 388] |  | 16.9 nM |  |  |
| C[C@@H](C(=O)NC[C@H](c1ccc(Cl)c(-n2ncnc2C(F)F)c1)N1C(=N)N[C@](CC(C)(C)C(F)(F)F)(c2ccc(-c3cnn(C4CC4)n3)cc2)C1=O)C(F)(F)F [Compound 390] |  | 20.9 nM |  |  |
| [2H]C([2H])([2H])OC(=O)NC[C@H](c1ccc(Cl)c(-n2ncnc2C(F)F)c1)N1C(=N)N[C@](CC(C)(C)C(F)(F)F)(c2ccc(-c3cnn(C4CC4)n3)cc2)C1=O [Compound 393] |  | 27 nM |  |  |

— patent US10774053B2, “HIV protease inhibitors” (Gilead Sciences, Inc., priority 2017, dated 2020)
